Reference: patent publication US20080108665A1, “Use of N-substituted sulfoximines for control of invertebrate pests” (priority 2006, published 2008)

Legend:
[1] = test system: Cotton Aphid (Aphis gossypii); assay: Cotton aphid seed coating assay on squash; type: in vivo; details: 3 mg/seed, 10% SC formulation, counted 3 days after infestation
Method: Selected compounds of the invention were tested in assays designed to evaluate its systemic activity for control of cotton aphid through seed-coating prior to planting. The crop used in these assays was a hybrid squash (var. Pic-N-Pic). Test compound was formulated in a 10% SC formulation. Ten squash seeds were used for each treatment. Seeds were placed on waxed paper and a pipette was used to apply the original or diluted formulations to each seed. The air-dried, treated seeds were individually planted into 3 inch pots containing metro mix. The pots were placed on a California cart and moved into the greenhouse for sub watering only. At the specified number of days after planting, the plants were infested with approximately 40 wingless aphids. The infested plants were kept in an environmental holding room (23° C., 40% RH, 16 hr light: 8 hr dark) for three days before the number of live aphids was counted under a microscope. Calculations for % Control were based on a corrected basis compared to the populations on the reference plants germinated from seeds treated with the formulation blank.
Corrected % Control=100*(X−Y)/X • where X=No. of live aphids on reference plants • Y=No. of live aphids on treated plants Assay 1. Compounds (1) and (2) were tested at 3 mg/seed. The original 10% SC formulation was used. One half (15 ul) of the sample was spread onto one side of a seed. Once dried (approximately 1 hr), the seed was flipped over and the 2nd half of sample was spread over the other side. Fourteen and 25 days after planting, aphid infestations were conducted on the 1st and 2nd true leaves, respectively.
Assay 2. Compound (2) was tested at 0.1 and 1 mg/seed. For the 1 mg/seed treatment, the original 10% formulation was used. For the 0.1 mg/seed treatment, the 10% formulation were diluted 10× with DI water before application. One half (5 ul) of the sample was spread onto one side of a seed. Once dried (approximately 1 hr), the seed was flipped over and the 2nd half of sample was spread over the other side. Thirteen days after planting, the 1st leaf was infested.

[2] = test system: Green Peach Aphid (Myzus persicae); assay: Green peach aphid root uptake assay on pepper; type: in vivo; details: 3 days after infestation
Method: These assays were designed to evaluate the possibility of using the compounds identified in the foregoing examples for applications such as nursing trays, transplanting water and/or irrigation. Systemic activity against green peach aphid was evaluated in a root uptake assay. Bell peppers (Capsicum annum var. California Wonder) were used as test plants seeded and grown in rock wool plugs. Plants were grown to expanding 1st true leaf stage. The rock wool plugs containing individual plants were placed in 1-ounce cups and surrounded with white clean sand. Five plants were used for each treatment. A volume of 5 mL of the test solutions was applied to each cup (each plant). After insecticide application, the seedlings were infested with green peach aphids and held in a growth chamber (25° C., 50% RH, 16 hr light: 8 hr dark). Number of live aphids on each plant was counted at 3 days after infestation. Calculations for % Control were based on a corrected basis compared to the populations on the reference plants.
Corrected % Control=100*(X−Y)/X • where X=No. of live aphids on reference plants • Y=No. of live aphids on treated plants Assay 1: Compound (3) was tested at a dose range of 5-500 μg/plant. A stock solution of 1000 ppm (1 mg/mL) was made by dissolving technical test compound in acetone:ethanol (90:10). The highest test concentration (100 ppm, 500 μg/5 ml) was prepared by diluting 2.5 mL stock solution with 22.5 mL DI water. The lower test concentrations (25 mL) were similarly prepared by diluting aliquots of the stock solution with DI water. Reference plants received DI water only.
Assay 2: Compound (2) was tested at a dose range of 0.08-50 μg/plant. A stock solution of 1000 ppm was made by dissolving 2 mg of technical test compound in 2 mL acetone. The highest test concentration (10 ppm, 50 μg/5 ml) was prepared by diluting 0.32 mL stock solution with 1.6 mL acetone and 30.08 mL DI water, containing 6% acetone. Lower test concentrations were prepared by sequentially diluting 6.5 mL higher concentration (start from the 10 ppm test solution) with 26.0 ml acetone: DI water (6:94). The solvent/diluent system (6% acetone) was used as reference.

[3] = test system: sweet potato whitefly, Bemisia tabaci; details: more recently-collected strains of whitefly, late 1990s; cited from earlier work

## CS(=O)(Cc1ccc(Cl)nc1)=NC#N (stereo not drawn) [Compound 1, [(6-Chloropyridin-3-yl)methyl](methyl)oxido-λ^4-sulfanylidenecyanamide]
[1]
  % Control, seed coating systemic 1st leaf, 14 days after planting: 100%
  % Control, seed coating systemic 2nd leaf, 25 days after planting: 99.6%

## N#CN=S1(=O)CCCC1Cc1ccc(Cl)nc1 (stereo not drawn) [Compound 3, 2-[(6-chloropyridin-3-yl)methyl]-1-oxidotetrahydro-1H-1-λ^4-thien-1-ylidenecyanamide]
[2]; 5 μg/plant
  % Control, root uptake systemic: 10%
[2]; 50 μg/plant
  % Control, root uptake systemic: 88%
[2]; 500 μg/plant
  % Control, root uptake systemic: 100%

## O=[N+]([O-])NC1=NCCN1Cc1ccc(Cl)nc1 [imidacloprid, Imidacloprid]
[3]
  resistance: more than 100 fold
